Results published in the supplement of paper PMC10307832.

Columns and labels:
Experiment in all cases: relative viability (nuclei count vs DMSO), 5 days (fraction); higher = more cells survive
Carfilzomib + OSI-027 = compound: CC(C)C[C@H](NC(=O)[C@H](CCc1ccccc1)NC(=O)CN1CCOCC1)C(=O)N[C@@H](Cc1ccccc1)C(=O)N[C@@H](CC(C)C)C(=O)[C@@]1(C)CO1 [Carfilzomib] + COc1cccc2cc(-c3nc([C@H]4CC[C@H](C(=O)O)CC4)n4ncnc(N)c34)[nH]c12 [OSI-027] (partner 0.5 µM)
Summary of the method: (§1)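 A single step with final 0.05% Triton X-100, 1% formaldehyde and 1 ug/ml Hoechst fixed the cells and stained nuclei 5 days after treatment. Lung cancer cell lines in 1536-well plates had been treated by pin tool the day after seeding with one drug alone or a fixed anchor-drug dose plus five library-drug doses (not always all listed) in √10 steps, and nuclei were counted on 4× images. Relative viability is the ratio of nuclei in treated wells to nuclei in vehicle wells, taken as the median of duplicate plates.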

Olaparib + Decitabine = compound: O=C(c1cc(Cc2n[nH]c(=O)c3ccccc23)ccc1F)N1CCN(C(=O)C2CC2)CC1 [Olaparib] + Nc1ncn([C@H]2C[C@H](O)[C@@H](CO)O2)c(=O)n1 [Decitabine] (partner 2 µM)
Summary of the method: as §1

Olaparib + Navitoclax = compound: O=C(c1cc(Cc2n[nH]c(=O)c3ccccc23)ccc1F)N1CCN(C(=O)C2CC2)CC1 [Olaparib] + CC1(C)CCC(c2ccc(Cl)cc2)=C(CN2CCN(c3ccc(C(=O)NS(=O)(=O)c4ccc(N[C@H](CCN5CCOCC5)CSc5ccccc5)c(S(=O)(=O)C(F)(F)F)c4)cc3)CC2)C1 [Navitoclax] (partner 0.5 µM)
Summary of the method: as §1

Carfilzomib + Phenformin = compound: CC(C)C[C@H](NC(=O)[C@H](CCc1ccccc1)NC(=O)CN1CCOCC1)C(=O)N[C@@H](Cc1ccccc1)C(=O)N[C@@H](CC(C)C)C(=O)[C@@]1(C)CO1 [Carfilzomib] + N=C(N)NC(=N)NCCc1ccccc1 [Phenformin] (partner 250 µM)
Summary of the method: as §1

Row | Cell Line | relative viability (Carfilzomib + OSI-027; first compound 0.001 µM) | relative viability (Carfilzomib + OSI-027; first compound 0.003162 µM) | relative viability (Carfilzomib + OSI-027; first compound 0.01 µM) | relative viability (Carfilzomib + OSI-027; first compound 0.03162 µM) | relative viability (Carfilzomib + OSI-027; first compound 0.1 µM) | relative viability (Olaparib + Decitabine; first compound 0.08 µM) | relative viability (Olaparib + Decitabine; first compound 0.253 µM) | relative viability (Olaparib + Decitabine; first compound 2.53 µM) | relative viability (Olaparib + Decitabine; first compound 8 µM) | relative viability (Olaparib + Navitoclax; first compound 0.08 µM) | relative viability (Olaparib + Navitoclax; first compound 0.253 µM) | relative viability (Olaparib + Navitoclax; first compound 2.53 µM) | relative viability (Olaparib + Navitoclax; first compound 8 µM) | relative viability (Carfilzomib + Phenformin; first compound 0.001 µM) | relative viability (Carfilzomib + Phenformin; first compound 0.003162 µM) | relative viability (Carfilzomib + Phenformin; first compound 0.01 µM) | relative viability (Carfilzomib + Phenformin; first compound 0.03162 µM) | relative viability (Carfilzomib + Phenformin; first compound 0.1 µM)
1 | NCI-H1755 | 0.707 | 0.777 | 0.746 | 0.65 | 0.25 | 0.666 | 0.621 | 0.577 | 0.562 | 1.02 | 0.912 | 1.01 | 0.876 | 0.623 | 0.664 | 0.66 | 0.592 | 0.238
2 | NCI-H1792 | 0.727 | 0.794 | 0.684 | 0.633 | 0.519 | 0.336 | 0.264 | 0.234 | 0.19 | 0.666 | 0.555 | 0.505 | 0.512 | 0.188 | 0.357 | 0.262 | 0.234 | 0.0821
3 | NCI-H1915 | 0.596 | 0.654 | 0.59 | 0.457 | 0.0943 | 0.242 | 0.239 | 0.234 | 0.196 | 0.721 | 0.725 | 0.739 | 0.486 | 0.367 | 0.403 | 0.359 | 0.255 | 0.0555
4 | NCI-H1944 | 0.389 | 0.489 | 0.474 | 0.46 | 0.173 | 0.397 | 0.401 | 0.336 | 0.273 | 0.95 | 0.842 | 1.07 | 0.64 | 0.187 | 0.2 | 0.202 | 0.204 | 0.139
5 | NCI-H1975 |  | 0.715 | 0.503 | 0.0875 | 0.106 | 0.339 | 0.312 | 0.331 | 0.248 | 1.28 | 0.957 | 1.14 | 1.02 |  | 0.367 | 0.197 | 0.0933 | 0.0936
6 | NCI-H1993 | 0.573 | 0.569 | 0.576 | 0.443 | 0.459 | 0.512 | 0.59 | 0.666 | 0.636 | 0.872 | 0.914 | 1.19 | 1.27 | 0.482 | 0.498 | 0.42 | 0.477 | 0.45
7 | NCI-H2009 | 0.758 | 0.778 | 0.631 | 0.111 | 0.0867 | 0.391 | 0.336 | 0.337 | 0.32 | 1.31 | 1.05 | 1.1 | 0.996 | 0.514 | 0.564 | 0.449 | 0.155 | 0.101
8 | NCI-H2023 | 0.386 | 0.435 | 0.467 | 0.147 | 0.0792 | 0.172 | 0.143 | 0.135 | 0.126 | 1.05 | 0.973 | 0.959 | 0.787 | 0.406 | 0.444 | 0.416 | 0.145 | 0.0723
9 | NCI-H2085 | 0.59 | 0.799 | 0.64 | 0.264 | 0.27 | 0.545 | 0.49 | 0.43 | 0.46 | 1.25 | 1.03 | 1.12 | 0.929 | 0.708 | 0.862 | 0.491 | 0.259 | 0.244
10 | NCI-H2087 | 0.593 | 0.636 | 0.302 | 0.0521 | 0.0683 | 0.249 | 0.189 | 0.262 | 0.167 | 0.968 | 0.869 | 0.877 | 0.728 | 0.471 | 0.445 | 0.13 | 0.0358 | 0.0687
11 | NCI-H2126 | 0.721 | 0.707 | 0.76 | 0.726 | 0.331 | 0.614 | 0.544 | 0.541 | 0.542 | 0.875 | 0.824 | 0.749 | 0.853 | 0.521 | 0.621 | 0.532 | 0.441 | 0.276
12 | NCI-H2170 | 0.643 | 0.696 | 0.792 | 0.72 | 0.271 | 0.422 | 0.369 | 0.277 | 0.253 | 0.551 | 0.533 | 0.53 | 0.448 | 0.423 | 0.457 | 0.427 | 0.411 | 0.232
13 | NCI-H2347 | 0.415 |  | 0.366 | 0.26 | 0.217 | 0.644 | 0.558 | 0.531 | 0.516 | 0.9 | 0.779 | 0.692 | 0.562 | 0.274 |  | 0.341 | 0.163 | 0.141
14 | NCI-H2405 |  | 0.667 | 0.651 | 0.507 | 0.305 | 0.681 | 0.55 | 0.458 | 0.486 | 1.21 | 0.878 | 0.869 | 0.677 |  | 0.432 | 0.395 | 0.298 | 0.129
15 | NCI-H3122 | 1.01 | 1.05 | 1.07 | 0.872 | 0.154 | 0.385 | 0.351 | 0.259 | 0.256 | 0.948 | 0.976 | 0.964 | 0.86 | 0.375 | 0.446 | 0.366 | 0.278 | 0.0931
16 | PC-3 [JPC-3] | 0.801 | 0.775 | 0.813 | 0.755 | 0.352 | 0.82 |  | 0.761 | 0.741 | 0.784 | 0.729 | 0.743 | 0.76 | 0.487 | 0.461 | 0.464 | 0.432 | 0.261
17 | PC-14 | 0.904 | 0.962 | 0.603 | 0.0409 | 0.0529 | 0.153 | 0.124 | 0.101 | 0.105 | 1.04 | 0.934 | 0.867 | 0.722 | 0.549 | 0.774 | 0.557 | 0.115 | 0.0595
18 | RERF-LC-KJ | 0.551 | 0.525 | 0.72 | 0.322 | 0.221 | 0.703 | 0.637 | 0.558 | 0.451 | 1.04 | 0.862 | 0.998 | 1.09 | 0.44 | 0.421 | 0.419 | 0.354 | 0.236
19 | SK-LU-1 | 0.36 | 0.362 | 0.399 | 0.102 | 0.138 | 0.476 | 0.484 | 0.504 | 0.452 | 0.941 | 0.785 | 0.749 | 0.409 | 0.458 | 0.529 | 0.48 | 0.0958 | 0.114
20 | SK-MES-1 | 0.637 | 0.632 | 0.652 | 0.336 | 0.145 | 0.305 | 0.299 | 0.303 | 0.262 | 1.15 | 1.07 | 1.13 | 0.825 | 0.655 | 0.745 | 0.635 | 0.551 | 0.146
21 | SW 1573 | 0.717 | 0.771 | 0.403 | 0.0525 | 0.0647 | 0.32 | 0.301 | 0.16 | 0.139 | 0.958 | 0.795 | 0.858 | 0.671 | 0.341 | 0.43 | 0.251 | 0.0664 | 0.0618
22 | UMC-11 | 0.503 | 0.474 | 0.496 | 0.426 | 0.211 | 0.497 |  | 0.405 | 0.4 | 0.398 | 0.321 | 0.259 | 0.207 | 0.318 | 0.33 | 0.295 | 0.293 | 0.162
